Assay results reported in paper PMC5335257, “Promoting in vivo remyelination with small molecules: a neuroreparative pharmacological treatment for Multiple Sclerosis” (Scientific Reports, 2017).
“Also recorded” adds a separate entry of the source.

Assays:
[1] = system: cerebellar slices demyelinated with LPC; experiment: Ex vivo remyelination in cerebellar slice cultures demyelinated with LPC; type: cell-based, CD1 P7 mice; settings: 5 μM, 3 days post lesion (3DPL)
Method: The protocol used was modified from previously described. CD1 P7 mice were decapitated, and their cerebella were dissected into ice-cold HBSS (Invitrogen). 300 μm sagittal slices of cerebellum were cut using a McIllwain tissue chopper, placed on Millicell-CM organotypic culture inserts (3 slices per insert; Millipore) in a medium containing HBSS:BME: horse serum (1:2:1, Invitrogen), 28 mM D (+) - glucose (Normapur), […] L-Glutamine (Invitrogen) and 100 U/mL penicillin, 0.1 mg/mL streptomycin and 0.25 μg/ml Amphotericin B antibiotic anti-mycotic solution (Sigma) and maintained at 5% CO2 and 37 °C. Medium was changed every two days, and after 7 days in culture, demyelination was induced by addition of 0.5 mg/ml LPC (Sigma) to the medium for 15 h. After that, slices were treated with fresh medium containing PDE7-GSK3 or GSK3 inhibitors (VP1.15, VP3.15 or TDZD8; 5 μM). Cultures were maintained for 1 or 3 days post lesion (DPL), and then fixed for 40 minutes and immunostained with anti-MBP antibodies (myelin basic protein –as a marker of myelin; 1:200; Serotec; Cat#MCA4095) and anti-neurofilament antibody (as a marker of axons; 1:200; Abcam; Cat#ab8135). Fluorescence images were taken on a confocal SP5 resonant scanner (Leica Microsystems) at 1μm intervals in white matter areas at x40 magnification. The photographs were merged and co-localisation of both markers was quantified with Image J software using the colocalization highlighter plugin. This measurement was related to the area occupied by axons (neurofilament staining) and normalized with control values showing the data as the mean normalized myelination index ± SEM. Quantification was made in at least three independent experiments.

[2] = system: corpus callosum of cuprizone-fed mice; experiment: In vivo remyelination, cuprizone demyelination model; set-up: species or system C57/BL6 male mice
Method: The protocol used was modified from previously described. Demyelination was induced by feeding 8 weeks old male C57/BL6 mice ad libitum with 0.2% cuprizone (bis-cyclo-hexanone-oxaldihydrazone; Sigma) mixed with milled chow (Altromin) for 5 weeks. A control group was maintained in the same conditions but fed with the chow without cuprizone. After cuprizone withdrawal, mice were intraperitoneally injected on 3 alternate days with PDE7-GSK3 inhibitors (VP1.15 or VP3.15; 10 mg/kg of animal) using a solution of the compound (100 mg/mL in DMSO) diluted 1:50 in a solution of 5% Tocrisolve (Tocris, UK) in distilledwater[36] or with the vehicle. 1 week after the cuprizone withdrawal, mice were transcardially perfused with 4% PFA in phosphate buffer. Another group was maintained for 3 weeks after cuprizone withdrawal and injected with 3 doses per week on alternate days of the PDE7-GSK3 inhibitors (10 mg/kg of animal per dose see above) or the vehicle and then perfused. The corpus callosum of three animals per condition was studied. For histological examination, forebrain coronal sections (20 μm) were taken of the rostral part of the corpus callosum as previously described[80][81] and stained with eriochrome cyanine using a standard protocol in order to study the myelin. Briefly, cryosections on glass slides were immersed in acetone for 5 minutes, dried and submerged in eriochrome cyanine solution (Sigma) for 1 hour and then differentiated in 5% (w/v) iron alum for 5–10 minutes, followed by a second differentiation with borax-ferricyanide solution for 5 minutes. The stained area was measured with the Image J software and related to the total analyzed area. For the immunofluorescence analysis, tissue sections were stained with anti-MBP (1:200; Serotec; Cat#MCA4095) for myelin, anti-PDGFRα (1:200; Santa Cruz; Cat#sc338) for OPCs, anti-CC1 (1:100; Calbiochem, Cat#OP80) and anti-GFAP (Glial fibrillary acidic protein; 1:200; Dako; Cat#Z0334) for astrocytes, and tomato lectin (TL; 1:67; Sigma; Cat#L0651) for microglia. Optical images were acquired using an Olympus BX61 microscope and fluorescence images were taken using a DFC480 FX digital camera (Leica) coupled to a Leica DM5000 B microscope or a confocal SP5 resonant scanner (Leica). Myelin staining (with MBP and eriochrome cyanine) and CC1 staining were quantified by taking pictures of non-overlapping fields of coronal sections of the corpus callosum, between the lateral ventricles (2 fields per section, 5–6 sections of each mice; using a x20 objective) and by measuring the fluorescence intensity or blue staining using the Image J software. The number of OPCs per field was also counted in pictures of the midline of the corpus callosum using the x40 objective (4–6 sections per mice). Astrocytes and microglia were evaluated in pictures of the same area of the corpus callosum using the x40 objective and quantified by measuring the area occupied by GFAP or TL staining respectively using the Image J software (4–6 sections per mice). Data were expressed as the mean ± SEM.

[3] = system: corpus callosum of LPC-injected mice; experiment: In vivo remyelination, LPC demyelination model; set-up: species or system C57/BL6 male mice; settings: 10 mg/kg i.p. from 9 dpi
Method: Anaesthetized 8 week old C57/BL6 male mice were injected with 2 μl of 1% LPC through a hole drilled in the skull at stereotactic coordinates 1.2 mm posterior, 0.5 mm lateral, 1.4 mm deep to the bregma over 4 minutes using a 30-gauge needle attached to a Hamilton syringe, driven by a KD Scientific Nano pump, for 4 minutes to reduce backflow as previously described. At 9 days post injection (dpi), the first intraperitoneal dose of PDE7-GSK3 inhibitors (VP1.15 or VP3.15; 10 mg/kg of animal) was injected using the same solution detailed above for the cuprizone model. Each inhibitor was injected into a group of 10 mice and another group of 10 mice was injected with the vehicle. Two days after, a second dose was injected (11 dpi) and 5 mice of each group were perfused at 14 dpi with 4% PFA and 2% glutaraldehyde (GTA) in phosphate buffer. The remaining 5 animals of each group received a third injection of inhibitors (15 dpi) and were perfused at 21 dpi. A control group of 3 non-lesioned and non-treated mice was used as control. Fixed brains were post-fixed in 1% GTA for 7 days and then coronally cut into 1 mm slices. The slices containing the injected areas were selected and the area of interest was cut and processed for electron microscopy into a resin (Araldite/TAAB 812 Resin Kit, TAAB) following manufacturer instructions.
In order to detect the injured areas for investigation, sagittal semi-thin sections (1 μm) were cut using an ultramicrotome (Leica) and stained with toluidine blue. Ultra-thin sections (60 nm thick) were cut and stained in uranyl acetate and lead citrate and the ultrastructure was analysed taking images with a GatanOrius CCD camera coupled to a transmission electronic microscope (Philips CM120). The percentage of myelinated fibres and the thickness of myelin sheaths were examined. The mean percentage of myelinated fibres was measured from 10 fields per animal. Grids were overlaid onto the images and all axons intersecting with the grid lines were counted as myelinated or not[83][84]. The thickness of myelin around myelinated fibres was expressed as a g-ratio (axon perimeter divided by myelinated fibre perimeter) using ImageJ by tracing around a minimum of 100 individual fibres per mouse, using a pen and electronic pad (Bamboo pad, Wacom). To select the fibres randomly, a grid composed by 8 μm[2] squares was overlaid onto the images and fibres in alternate squares were measured. Data were expressed as the mean ± SEM.

[4] = system: PDE7; set-up: method as in PMID 24437940; settings: read-out: PDE7 inhibition IC50; cited from earlier work
[5] = system: GSK-3; set-up: method as in PMID 24437940; settings: read-out: GSK-3 inhibition IC50; cited from earlier work
[6] = system: OPCs; set-up: method as in PMID 23661015; settings: cited from earlier work
[7] = set-up: method as in PMID 23077723, PMID 25264825; settings: cited from earlier work
[8] = system: spinal cord injury models; set-up: method as in PMID 21297958, PMID 23077723; settings: spinal cord injury models (as well as EAE); cited from earlier work

Q: For `OCC/N=c1/nc(-c2ccccc2)n(-c2ccccc2)s1` [VP1.15], which “remyelination (normalized myelination index)” value [1] is on record?
A: Its value is “increased”.

Q: What about the “myelin staining (eriochrome cyanine) in corpus callosum vs vehicle” value ([2]; 10 mg/kg i.p. on 3 alternate days, 1 week after cuprizone withdrawal) of the same compound?
A: The value was “significantly higher myelin staining; also recorded: almost complete remyelination”.

Q: What about the “myelin quantification by MBP immunodetection” value ([2]; 10 mg/kg i.p., after cuprizone withdrawal) of the same compound?
A: The value was “confirmed these results, with similar effects”.

Q: And the “microglial activation (TL staining) vs vehicle” value ([2]; 1 week after cuprizone withdrawal)?
A: The value was “Neither VP1.15 nor VP3.15 induced changes”.

Q: What about the “number of OPCs (PDGFRα+ cells) vs vehicle” value ([2]; one week after cuprizone withdrawal) of the same compound?
A: Its value is “significantly lower number of OPCs”.

Q: What about the “thickness of myelin sheaths (G-ratio) vs untreated demyelinated control” value [3] of the same compound?
A: Its value is “increased the thickness”.

Q: And the “percentage of myelinated callosal fibers vs vehicle” value ([3]; analysed at 14 or 21 dpi)?
A: The value was “increase”.

Q: And the IC50 [4]?
A: Its IC50 is 1.1 µM.

Q: What about the IC50 [5] of the same compound?
A: Its IC50 is 1.95 µM.

Q: And the “OPC differentiation (and survival) in vitro” value [6]?
A: Its value is “enhance OPC differentiation and survival”.

Q: And the emetic side effects [7]?
A: Its emetic side effects is “without emetic side effects”.

Q: And the immunomodulatory effect [8]?
A: The immunomodulatory effect was “immunomodulatory effect”.
